Where “and” joins values, the source holds several entries; their conditions need not be identical. Identical values can stand only once.
Experiments:
SUM149 cells = test: Real-time RT-PCR of specific mRNAs in SUM149 cells; format: cell-based; details: 4 μg/ml, 6 h
Method: (§1) Real-time RT-PCR analysis was performed on 2 technical replicates of at least 2 biological sample replicates.
(§2) Real-time quantitative RT-PCR methods were used to determine the nature of the RNA induced by treatment with CA, using the Real Time PCR machine Stratagene MX3005P QPCR System.
(§3) Real-time RT-PCR analysis was performed to examine the mode of action of CA. In MDA-MB-468 cells, CA at 4 μg/ml induced an increase in expression of RNA of the tumor suppressor gene CDKN1A; for MDA-MB-468 cells (6 h: 1.51-logfold; 24 h: 1.61-logfold) (FIG. 3A); for SUM149 cells (6 h: 2.7-logfold). CA had little effect on the expression of the tumor suppressor gene BRCA1.

MDA-MB-468 cells = test: Real-time RT-PCR of specific mRNAs in MDA-MB-468 cells; format: cell-based, human; details: for increase in expression of RNA of CDKN1A: 4 μg/ml, MDA-MB-468
Method: as §1, §2, §3

[1] = test system: MDA-MB-453 Her2 overexpressing human breast cancer cells; test: MTT cell proliferation assay on MDA-MB-453 cells; format: cell-based; details: for Proliferation (relative to control = 1) / % proliferation: MDA-MB-453, 96 h
Method: MDA-MB-453 (ER negative, Her2 overexpressing), MDA-MB-468 (triple negative) and MCF7 (ER positive, Her2 low) cells, HT29 (p53 positive human colon cancer cells) (ATCC, Manassas, Va.) were grown in Dulbecco's Modified Eagle's medium (DMEM) (Gibco BRL Life Technologies, Inc., Rockville, Md.) containing 10% (v/v) fetal bovine serum (FBS) (Gibco BRL) at 37° C., 5% C02. SUM 149 (Her2 overexpressing, ER low) (the gift of Dr. R. Parsons, Columbia University Medical Center, New York, N.Y.) were cultivated in Ham's F-12 medium with 10% FBS. MCF7 and MCF7/Her2-18 (MCF7 cells transfected with a full length Her2 cDNA coding region, 45-fold increase Her2) were the kind gift of Dr. Dennis Slamon (Los Angeles, Calif.). These cells were maintained in RPMI supplemented with 10% FBS plus glutamine (1%) and PSF (1%) (Gibco, Rockville Md.).
MTT assay: the MTT {3-(4,5-dimethyl-2-thiazol)-2,5-diphenyl-2H tetrazolilum bromide} (Dojindo; Tokyo, Japan) cell proliferation assay system (Roche Diagnostic, Mannheim, Germany) was used to determine the sensitivity of the various cell lines to agents. Cells were seeded at 1×10^4 cells/well in 96-well plates and allowed to attach for 24 h. The medium was replaced with fresh medium containing DMSO or compound. The cells were treated for 96 or 120 h, after which they were incubated with MTT reagents and the absorbance read at 650 and 575 nm. For cell growth assays, the data are expressed as mean+/−standard deviation. Control and treated cells were compared using the student's t-test (p<0.05).
Cells were exposed to increasing concentrations of agents for 96 h and the number of viable cells determined by the MTT assay.

[2] = test system: MDA-MB-468 human breast cancer cells; test: Microarray gene expression analysis (Affymetrix, AffyLimma); format: cell-based; details: 6 h
Method: MDA-MB-468 cells were treated with 5 μg/mL (15 μM) or 20 μg/mL of CA for 6 or 24 h. RNA was isolated using methods known in the art. Total cellular RNA was extracted using Trizol (Invitrogen; Carlsbad, Calif.) according to the manufacturer's protocol with minor modifications, and then purified twice with Qiagen's RNeasy column. Total RNA (8 μg) was reverse transcribed with T7-(dT)24 primer and Super Script III reverse transcriptase (Invitrogen).
Microarray analysis was performed using methods known in the art. Labeled cDNA was generated from MDA-MB-468 cells and hybridized to Affymetrix […] genome arrays at Columbia University following standard Affymetrix protocols. Analysis was performed using the AffyLimmaGUI package in the open-source Bioconductor suite.
Affy-Limma analysis was used to determine the effects of carnosic acid, at a dose of 20 μg/ml and at 6 h on the gene expression pattern in MDA-MB-468 breast cancer cells. Assays were performed as described in the Materials and methods section. Fold change (log) is the mean of the ratio of hybridization signals in carnosic acid treated vs. control treated cells {40 highest M (log-fold) values; p<0.05}.
For gene expression analysis, the samples were analyzed by AffyLima analysis. The statistical significance of differential expression was calculated using the empirical Bayesian LIMMA ([…]) method of Smyth et al. (Smyth, G. K. et al., “Use of within-array replicate spots for assessing differential expression in microarray experiments.” Bioinformatics 2005; 21:2067-75, incorporated herein by reference): B=log e(odds of differential expression), the Bayesian natural (base e) log of the odds that the genes are differentially expressed.

[3] = test system: SKOV3 (Her2 overexpressing) human ovarian cancer cells; test: MTT cell proliferation assay on SKOV3 cells; format: cell-based; details: SKOV3, 96 h
Method: SKOV3 (Her2 overexpressing) ovarian cancer cells (ATCC, Manassas, Va.), were grown in McCoy's media (Gibco BRL Life Technologies, Inc., Rockville, Md.) containing 10% (v/v) fetal bovine serum (FBS) (Gibco BRL) at 37° C., 5% C02, plus Penn-Strep (Sigma).
The MTT [3-(4,5-dimethyl-2-thiazol)-2,5-diphenyl-2H tetrazolilum bromide] (Dojindo; Tokyo, Japan) cell proliferation assay system (Roche Diagnostic, Mannheim, Germany) was used to determine the sensitivity of the cell lines to agents. Cells were seeded at 1×10^4 cells/well in 96-well plates and allowed to attach for 24 h. The medium was replaced with fresh medium containing DMSO or compound. The cells were treated for 96 h, after which the media was replaced with fresh media; the cells were incubated with MTT reagents and the absorbance read at 650 and 575 nm. The 650 reading was subtracted from the 575 reading to correct for background absorbance.

SMILES: CC(C)c1cc2c(c(O)c1O)[C@@]1(C(=O)O)CCCC(C)(C)[C@@H]1CC2 [carnosic acid]
- increase in expression of RNA of CDKN1A (SUM149 cells): 2.7 logfold
- increase in expression of RNA of CDKN1A (MDA-MB-468 cells; 6 h): 1.51 logfold
- increase in expression of RNA of CDKN1A (MDA-MB-468 cells; 24 h): 1.61 logfold
- effect on expression of the vitamin D receptor (MDA-MB-468 cells; 6 h, real-time RT-PCR): slight increase in expression
- effect on expression of BRCA1 (MDA-MB-468 cells; real-time RT-PCR): little effect
- effect on expression of CYP24A1 (MDA-MB-468 cells; real-time RT-PCR): significant increase in expression
- inhibition of cell growth ([1]; 0.5 μg/ml, 96 h, MTT): no inhibition
- Proliferation (relative to control = 1) ([1]; 0.5 ug/ml, MTT): 1.07
- % proliferation ([1]; 0.5 μg/ml, MTT): 107%
- Proliferation (relative to control = 1) ([1]; 2 ug/ml, MTT): 0.989
- % proliferation ([1]; 2 μg/ml, MTT): 98.9%
- Proliferation (relative to control = 1) ([1]; 5 ug/ml, MTT): 0.915
- % proliferation ([1]; 5 μg/ml, MTT): 91.5%
- Proliferation (relative to control = 1) ([1]; 10 ug/ml, MTT): 0.758
- Proliferation (relative to control = 1) ([1]; 20 ug/ml, MTT): 0.573
- IC50 ([1]; Homo sapiens, MDA-MB-453 cells, MTT assay, read-out: IC50, concentration that caused 50% inhibition of cell proliferation): 3 µg/mL and 7 µM
- number of genes altered, p<0.05 ([2]; 20 μg/ml): 124 genes
- ratio of genes activated to suppressed ([2]; 20 μg/ml): 4.6
- number of genes repressed ([2]; higher dose (20 μg/ml)): 22 genes
- number of genes whose expression is activated ([2]; higher dose (20 μg/ml)): 102 genes
- number of genes whose expression is activated ([2]; low dose (5 μg/ml), glutathione metabolism and transport genes): 3 genes
- M (log-fold) GDF15/LOC100292463 expression ([2]; probe 22577_x_at, 20 μg/ml): 3.2033 log-fold
- M (log-fold) TXNRD1 expression ([2]; probe 201266_at, 20 μg/ml): 1.6785 log-fold
- M (log-fold) ELF3 expression ([2]; probe 201510_at, 20 μg/ml): −1.3391 log-fold
- M (log-fold) HEXIM1 expression ([2]; probe 202814_s_at, 20 μg/ml): −1.2946 log-fold
- M (log-fold) GCLC expression ([2]; probe 202922_at, 20 μg/ml): 2.5514 log-fold
- M (log-fold) GCLC expression ([2]; probe 202923_s_at, 20 μg/ml): 2.3524 log-fold
- M (log-fold) HMOX1 expression ([2]; probe 203665_at, 20 μg/ml): 6.2079 log-fold
- M (log-fold) TTLL4 expression ([2]; probe 203702_s_at, 20 μg/ml): 1.4497 log-fold
- M (log-fold) GCLM expression ([2]; probe 203925_at, 20 μg/ml): 1.6079 log-fold
- M (log-fold) CDKN2C expression ([2]; probe 204159_at, 20 μg/ml): −1.5843 log-fold
- M (log-fold) PMAIP1 expression ([2]; probe 204286_s_at, 20 μg/ml): 1.5443 log-fold
- M (log-fold) KIF21B expression ([2]; probe 204411 at, 20 μg/ml): 2.0237 log-fold
- M (log-fold) CBR3 expression ([2]; probe 205379_at, 20 μg/ml): 1.4702 log-fold
- M (log-fold) CTH expression ([2]; probe 206085_s_at, 20 μg/ml): 2.3083 log-fold
- M (log-fold) ABCC2 expression ([2]; probe 206155_at, 20 μg/ml): 2.2558 log-fold
- M (log-fold) CYP4F3 expression ([2]; probe 206515 _at, 20 μg/ml): 2.4762 log-fold
- M (log-fold) AKR1B10 expression ([2]; probe 206561_s_at, 20 μg/ml): 2.3416 log-fold
- M (log-fold) SLC7A11 expression ([2]; probe 207528_s_at, 20 μg/ml): 2.3041 log-fold
- M (log-fold) ID3 expression ([2]; probe 207826_s_at, 20 μg/ml): −1.9788 log-fold
- M (log-fold) DDIT3/NR1H3 expression ([2]; probe 209383_at, 20 μg/ml): 1.8207 log-fold
- M (log-fold) GRB10 expression ([2]; probe 209409_at, 20 μg/ml): 1.6777 log-fold
- M (log-fold) RIT1 expression ([2]; probe 209882_at, 20 μg/ml): 1.3792 log-fold
- M (log-fold) SLC7A11 expression ([2]; probe 209921_at, 20 μg/ml): 3.7330 log-fold
- M (log-fold) MAP2 expression ([2]; probe 210015_s_at, 20 μg/ml): 1.9566 log-fold
- M (log-fold) AKR1C2 expression ([2]; probe 211653_x_at, 20 μg/ml): 4.1458 log-fold
- M (log-fold) ZC3HAV1 expression ([2]; probe 213051_at, 20 μg/ml): −1.5819 log-fold
- M (log-fold) AKR1C1 expression ([2]; probe 216594_x_at, 20 μg/ml): 3.8405 log-fold
- M (log-fold) CTH expression ([2]; probe 217127_at, 20 μg/ml): 2.3586 log-fold
- M (log-fold) SLC7A11 expression ([2]; probe 217678_at, 20 μg/ml): 3.9492 log-fold
- M (log-fold) NAMPT expression ([2]; probe 217738_at, 20 μg/ml): 1.4857 log-fold
- M (log-fold) NAMPT expression ([2]; probe 217739_s_at, 20 μg/ml): 1.7329 log-fold
- M (log-fold) PHLDA1 expression ([2]; probe 217996_at, 20 μg/ml): 1.9833 log-fold
- M (log-fold) SLC38A2 expression ([2]; probe 218041_x_at, 20 μg/ml): 1.2613 log-fold
- M (log-fold) TRIB3 expression ([2]; probe 218145_at, 20 μg/ml): 1.6338 log-fold
- M (log-fold) KCTD15 expression ([2]; probe 218553_s_at, 20 μg/ml): 1.3491 log-fold
- M (log-fold) OSGIN1 expression ([2]; probe 219475_at, 20 μg/ml): 1.9508 log-fold
- M (log-fold) SLC38A2 expression ([2]; probe 220924_s_at, 20 μg/ml): 1.2541 log-fold
- M (log-fold) RIPK4 expression ([2]; probe 221215_s_at, 20 μg/ml): −1.2540 log-fold
- M (log-fold) C9orf91 expression ([2]; probe 221865_at, 20 μg/ml): 1.3335 log-fold
- M (log-fold) ALDH1A3 expression ([2]; probe 222168_at, 20 μg/ml): −1.4627 log-fold
- % cell proliferation ([3]; 5 μg/ml): 105.3%
- % cell proliferation ([3]; 10 μg/ml): 56.7%
- % cell proliferation ([3]; 15 μg/ml): 8.1%
- % cell proliferation ([3]; 20 μg/ml): 6.7%
- IC50 ([3]; Homo sapiens, SK-OV-3, MTT, read-out: IC50, concentration that caused 50% inhibition of cell growth): ~10.5 µg/mL and ~31.6 µM

— patent US9801844B2, “Methods and compositions for the treatment of cancer” (priority 2012, dated 2017)
